Measurements taken from patent publication US20240342138A1, “MICROTUBULE TARGETING AGENTS” (BPGbio, Inc., priority 2023, published 2024).

Tests used:
[1] = Blood brain barrier permeability (PVDF membrane coated with porcine brain polar lipid extract); assay type: in vitro ADME
Protocol: Preparation of Donor Solution a) 0.2 mM working solution was prepared by diluting 10 mM stock solution with DMSO. b) 10 μM donor solution (5% DMSO) was prepared by diluting 20 μL of working solution with 380 μL PBS. 2) 150 μL of 10 μM donor solutions to each well of the donor plate, whose PVDF membrane was precoated with 5 μL of 1% brain polar lipid extract (Porcine)/dodecane mixture. Duplicates were prepared. 3) 300 μL of PBS was added to each well of the PTFE acceptor plate. 4) The donor plate and acceptor plate were combined together and incubated for 4h at room temperature with shaking at 300 rpm. 5) Preparation of TO sample: 20 μL donor solution was transferred to new well followed by the addition of 250 μL PBS (DF: 13.5), 130 μL ACN (containing internal standard) as TO sample. 6) Preparation of acceptor sample: The plate was removed from incubator. 270 μL solution was transferred from each acceptor well and mixed with 130 μL ACN (containing internal standard) as acceptor sample. 7) Preparation of donor sample: […] was transferred from each donor well and mixed with 250 μL PBS (DF: 13.5), 130 μL ACN (containing internal standard) as donor sample. 8) Acceptor samples and donor samples were all analyzed by LC/MS/MS.

A549 tumors = experiment: Lung adenocarcinoma xenograft model; assay type: in vivo, nude mice; settings: for Highest TGI (%): Day 7
Protocol: FIG. 13A-13B show efficacy of Compound 1 in a lung adenocarcinoma xenograft model (A549). A) In vitro potency of Compound 1 in A549 cells as evaluated by ATPlite 1Step™ Perkin Elmer (performed by NTRC Oncolines). B) A549 cells (5×10^6) were implanted subcutaneously in athymic female nude mice and tumors were allowed to grow to a volume of ˜112 mm^3 followed by randomization of animals into three (3) groups (vehicle control, 75 mg/kg, 150 mg/kg Compound 1) with 12 animals per group. A Compound 1 solid dispersion was prepared prior to each dosing and administered by oral gavage two times a day (BID). Mean tumor volume of each group over time and the growth of tumor in each individual animal was graphed. For each individual animal of […] group TGI (%) was calculated based on the tumor growth inhibition of individual tumor at each given day of the study compared to the average of the group for that given day of the study. P-values were calculated using two-tailed distribution and two-sample equal variance (homoscedastic) for each group treated with Compound 1 for each given day of the study in reference to vehicle control. NS p>0.05; *p≤0.05; **p≤0.01; ***p p≤0.001; **** p≤0.0001.
Anti-tumor efficacy of Compound 1 was evaluated against three (3) different preclinical oncology mice models of colorectal cancer, prostate cancer, and lung adenocarcinoma (see Table 5 below). For this purpose, an oral formulation of Compound 1 was used.
A549 is a human lung adenocarcinoma cell line isolated from the lung tissue of their origin. […] A549 cells were implanted subcutaneously in nude mice and tumors were allowed to grow to an average volume of 112 mm^3 followed by randomization into three (3) groups consisting of vehicle control, 75 mg/kg and 150 mg/kg Compound 1 (12 animals per group). A Compound 1 solid dispersion was administered by oral gavage two times a day (BID). All animals remained in the study until Day 28 except one animal from Group 3 (Animal #29), which exited the study on Day 11 due to more than 20% body weight loss. This animal was excluded from all analysis. Data from Day 14-18 were excluded from the analysis due to inconsistencies in data collection methods.

## COc1ccccc1-c1nc(CNC(=O)c2ccccc2OC(F)F)n[nH]1 [Compound 1, 2-(difluoromethoxy)-N-[[5-(2-methoxyphenyl)-1H-1,2,4-triazol-3-yl]methyl]benzamide]
[1]; 10 μM, 4 h
  Permeability: highly permeable and High
[1]; PAMPA, read-out: Mean Pe
  Papp at 4 h, 10 μM: 6.76 ×10⁻⁶ cm/s
[1]; pig, not told
  recovery at 4 h, 10 μM: 85.8%
A549 tumors; 75 mg/kg BID oral
  Highest TGI (%): 36.61%
A549 tumors; 150 mg/kg BID oral
  Highest TGI (%): 55.43%
A549 tumors; 150 mg/kg dose
  Maximum TGI (%), end of the study: 34.64%
A549 tumors; 75 and 150 mg/kg
  Body weight: no drug effect
A549 tumors; all doses evaluated, FIG. 13B
  Average tumor growth: decreased the average tumor growth at all doses evaluated
